Test results reported in PubChem BioAssay AID1259411 (Chemical Carcinogenesis Research Information System (CCRIS), 2018).
Calls of active or inactive are those of the source. How the calls were made is not given here.

Test system: rodent carcinogenicity bioassays, tumor incidence
Test: CCRIS carcinogenicity studies
Procedure, shortened: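 NCI-built, expert-reviewed records of carcinogenicity and related test outcomes (mutagenicity, tumor promotion/inhibition) compiled from published and report sources, historical span 1985-2011, not updated.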

Structure (SMILES): Clc1cc2c(c(Cl)c1Cl)Oc1c(Cl)c(Cl)c(Cl)c(Cl)c1O2
- carcinogen call (Species: RAT, Strain/Sex: SPRAGUE-DAWLEY/FEMALE (30), Route: ORAL, GAVAGE IN CORN OIL, Dose: 2.5 MG/KG BW PLUS 0.63 MG/KG 0N D 150, TOTAL DOSE 3.1 MG/KG (STUDY DURATION: LIFESPAN), Tumor Site: Type of Lesion: LIVER: CARCINOMA): active; positive
- carcinogen call (Species: RAT, Strain/Sex: SPRAGUE-DAWLEY/FEMALE (30), Route: ORAL, GAVAGE IN CORN OIL, Dose: 2.5 MG/KG BW PLUS 0.63 MG/KG ON D 150, TOTAL DOSE 3.1 MG/KG (STUDY DURATION: LIFESPAN), Tumor Site: Type of Lesion: LUNG: CARCINOMA): active; positive
- carcinogen call (Species: RAT, Strain/Sex: SPRAGUE-DAWLEY/FEMALE (30), Route: ORAL, GAVAGE IN CORN OIL, Dose: 2.8 MG/KG BW PLUS 0.086 MG/KG EVERY OTHER WK FOR LIFESPAN, TOTAL DOSE 4.6 MG/KG (STUDY DURATION: LIFESPAN), Tumor Site: Type of Lesion: LUNG: CARCINOMA): active; positive
- carcinogen call (Species: RAT, Strain/Sex: SPRAGUE-DAWLEY/FEMALE, Route: ORAL, GAVAGE IN CORN OIL, Dose: 0, 1.0, 2.8, 3.1, 3.4, 3.8, 4.1 MG/KG BW ONCE (STUDY DURATION: LIFESPAN), Dose: 0, 1.0, 2.8, 3.1, 3.4, 3.8, 4.1 MG/KG BW ONCE (STUDY DURATION: LIFESPAN), Tumor Site: Type of Lesion: LIVER: CARCINOMA): active; positive at higher doses
- carcinogen call (Species: RAT, Strain/Sex: SPRAGUE-DAWLEY/FEMALE, Route: ORAL, GAVAGE IN CORN OIL, Dose: 0, 1.0, 2.8, 3.1, 3.4, 3.8, 4.1 MG/KG BW ONCE (STUDY DURATION: LIFESPAN), Dose: 0, 1.0, 2.8, 3.1, 3.4, 3.8, 4.1 MG/KG BW ONCE (STUDY DURATION: LIFESPAN), Tumor Site: Type of Lesion: LUNG: CARCINOMA): active; positive

Structure (SMILES): NC(=O)Cc1c([O-])on[n+]1Cc1ccccc1
- carcinogen call (Species: MOUSE, Strain/Sex: DDD/FEMALE, Route: ORAL, Dose: 0, 0.002, 0.01, 0.02% IN DRINKING WATER FOR 12 MO (STUDY DURATION: 12 MO), Dose: 0, 0.002, 0.01, 0.02% IN DRINKING WATER FOR 12 MO (STUDY DURATION: 12 MO), Tumor Site: Type of Lesion: LIVER: HEPATOCELLULAR CARCINOMA): active; positive
- carcinogen call (Species: MOUSE, Strain/Sex: DDD/MALE, Route: ORAL, Dose: 0, 0.02% IN DRINKING WATER FOR 12 MO (STUDY DURATION: 12 MO)): inactive; negative
- carcinogen call (Species: RAT, Strain/Sex: DONRYU/FEMALE, Route: ORAL, Dose: 0, 60, 200, 400 PPM IN DRINKING WATER FOR 41 WK (STUDY DURATION: 104 WK), Dose: 0, 60, 200, 400 PPM IN DRINKING WATER FOR 41 WK (STUDY DURATION: 104 WK), Tumor Site: Type of Lesion: LIVER: TUMOR): active; positive
- carcinogen call (Species: RAT, Strain/Sex: DONRYU/MALE, Route: ORAL, Dose: 0, 20 PPM IN DIET FOR 104 WK (STUDY DURATION: 104 WK)): inactive; negative
- carcinogen call (Species: RAT, Strain/Sex: DONRYU/MALE, Route: ORAL, Dose: 0, 60, 200 PPM IN DIET FOR 15 WK (STUDY DURATION: 104 WK), Dose: 0, 60, 200 PPM IN DIET FOR 15 WK (STUDY DURATION: 104 WK), Tumor Site: Type of Lesion: LIVER: TUMOR): active; positive
- carcinogen call (Species: RAT, Strain/Sex: DONRYU/MALE, Route: ORAL, Dose: 0, 60 PPM IN DRINKING WATER FOR 41 WK (STUDY DURATION: 104 WK), Tumor Site: Type of Lesion: LIVER: TUMOR): active; positive

Structure (SMILES): c1ccc2c(c1)cc1ccc3c4ccccc4cc4ccc2c1c43
- carcinogen call (Species: MOUSE, Route: DERMAL, Tumor Site: Type of Lesion: INTEGUMENTARY SYSTEM (SKIN)): active; positive
- carcinogen call (Species: MOUSE, Route: SUBCUTANEOUS, Tumor Site: Type of Lesion: INJECTION SITE): active; positive

Structure (SMILES): CCN(CC)c1ccc2c(-c3ccccc3C(=O)O)c3ccc(=[N+](CC)CC)cc-3oc2c1
- carcinogen call (Species: MOUSE, Strain/Sex: ICR/FEMALE, Route: DERMAL, Dose: 0, 1 MG IN 0.1 ML DISTILLED WATER 2/WK FOR A MEAN TOTAL DOSE OF 121.4 MG (STUDY DURATION: 18 MO)): inactive; negative
- carcinogen call (Species: MOUSE, Strain/Sex: ICR/MALE, Route: DERMAL, Dose: 0, 1 MG IN 0.1 ML DISTILLED WATER 2/WK FOR A MEAN TOTAL DOSE OF 121.4 MG (STUDY DURATION: 18 MO)): inactive; negative

Structure (SMILES): COC(=O)c1c(Cl)c(Cl)c(C(=O)OC)c(Cl)c1Cl
- carcinogen call (Species: Mouse, Strain/Sex: CD-1/Female (60/group), Route: Oral, Dose: 0, 100, 1,000, 3,500, 7,500 ppm in diet for 2 yr, Dose: 0, 100, 1,000, 3,500, 7,500 ppm in diet for 2 yr, Tumor Site: Type of Lesion: Liver: Hepatocellular tumors (Significant only at highest dose)): active; positive (study details not given in source; purity 96.7%)
- carcinogen call (Species: Mouse, Strain/Sex: CD-1/Male (60/group), Route: Oral, Dose: 0, 100, 1,000, 3,500, 7,500 ppm in diet for 2 yr, Dose: 0, 100, 1,000, 3,500, 7,500 ppm in diet for 2 yr): inactive; negative (study details not given in source; purity 96.7%)
- carcinogen call (Species: Rat, Strain/Sex: Sprague-Dawley/Female (60/group), Route: Oral, Dose: 0, 1, 10, 50, 500, 1,000 mg/kg/day in diet for 2 yr, Dose: 0, 1, 10, 50, 500, 1,000 mg/kg/day in diet for 2 yr, Tumor Site: Type of Lesion: Thyroid: Follicular cell adenomas. Liver: Hepatocellular tumors): active; positive (as evaluated by ca dpr; study details not given in source; purity 97.7
- carcinogen call (Species: Rat, Strain/Sex: Sprague-Dawley/Male (60/group), Route: Oral, Dose: 0, 1, 10, 50, 500, 1,000 mg/kg/day in diet for 2 yr, Dose: 0, 1, 10, 50, 500, 1,000 mg/kg/day in diet for 2 yr, Tumor Site: Type of Lesion: Thyroid: Follicular cell adenomas): active; positive (evaluated as adverse effect by ca dpr; study details not given in sour

Structure (SMILES): CN1C(=O)C(O)N=C(c2ccccc2)c2cc(Cl)ccc21 (stereo unspecified)
- carcinogen call (Species: MOUSE, Strain/Sex: CD-1/FEMALE, Route: ORAL, Dose: 0, 10, 80, 160 MG/KG/D IN DIET FOR 18 MO (STUDY DURATION: 18 MO), Dose: 0, 10, 80, 160 MG/KG/D IN DIET FOR 18 MO (STUDY DURATION: 18 MO)): inactive; negative
- carcinogen call (Species: MOUSE, Strain/Sex: CD-1/MALE, Route: ORAL, Dose: 0, 10, 80, 160 MG/KG/D IN DIET FOR 18 MO (STUDY DURATION: 18 MO), Dose: 0, 10, 80, 160 MG/KG/D IN DIET FOR 18 MO (STUDY DURATION: 18 MO)): inactive; negative
- carcinogen call (Species: RAT, Strain/Sex: STRAIN-CD/FEMALE, Route: ORAL, Dose: 0, 10, 40, 160 MG/KG/D IN DIET FOR 2 YR (STUDY DURATION: 2 YR), Dose: 0, 10, 40, 160 MG/KG/D IN DIET FOR 2 YR (STUDY DURATION: 2 YR)): inactive; negative
- carcinogen call (Species: RAT, Strain/Sex: STRAIN-CD/MALE, Route: ORAL, Dose: 0, 10, 40, 160 MG/KG/D IN DIET FOR 2 YR (STUDY DURATION: 2 YR), Dose: 0, 10, 40, 160 MG/KG/D IN DIET FOR 2 YR (STUDY DURATION: 2 YR)): inactive; negative

Structure (SMILES): O=C1C=C[C@H]2CO[C@@H]1O2
- carcinogen call (Species: MOUSE, Strain/Sex: CD-1/FEMALE, Route: DERMAL, Dose: 0, 2.5 UMOL/0.1 DMSO 2/WK FOR 5 WK FOLLOWED 1 WK LATER BY 0.1 ML ACETONE 2/WK FOR 47 WK (STUDY DURATION: 52 WK)): inactive; negative

Structure (SMILES): [Ni]=[Te]
- carcinogen call (Species: RAT, Strain/Sex: F344/MALE, Route: INTRAMUSCULAR, Tumor Site: Type of Lesion: INJECTION SITE: SARCOMA): active; positive

Structure (SMILES): Cn1cc(C(=O)O)c(=O)c2ccc(/C=C/c3ccc([N+](=O)[O-])o3)nc21
- carcinogen call (Species: MOUSE, Strain/Sex: ICR/MALE, Route: ORAL, Dose: 0, 0.012% IN DIET FOR 14 WK (STUDY DURATION: 53 WK), Tumor Site: Type of Lesion: FORESTOMACH: SQUAMOUS CELL CARCINOMA, SQUAMOUS CELL PAPILLOMA, LUNG: PAPILLARY ADENOCARCINOMA): active; positive
